In paper PMC4890880 (ACS infectious diseases, 2016):
pIC50: −log10 of the molar value. Like-named read-outs stand apart in the source and are kept apart here.

What was measured:
HepG2-A16-CD81EGFP cells = conditions: for pIC50: read-out: Tox_IC50, HepG2 cytotoxicity
[1] = tested on: Plasmodium berghei (Pb-Luc) exoerythrocytic-stage parasites; conditions: for pIC50: read-out: PbLuc_IC50
[2] = sheet 2nd round, maximal inhibition in dose response
[3] = first series of columns, fraction of control
[4] = sheet 2nd round, Pb-Luc exoerythrocytic stage, 10-point dose response, top concentration 10
[5] = second series of columns (replicate), fraction of control
[6] = first series of dose-response columns, fraction of control
[7] = first series, fraction of control
[8] = sheet 2nd round, Broad compounds, dose response
[9] = second series of dose-response columns, fraction of control
[10] = second series, fraction of control
[11] = 2nd round, maximal inhibition in dose series

C[C@H]1CN([C@@H](C)CO)C(=O)CCCn2cc(nn2)CO[C@H]1CN(C)C(=O)Nc1cccc2ccccc12 [BRD-K54628954-001-01-2]
pIC50 (HepG2-A16-CD81EGFP cells; sheet 2nd round): < 5.00
Tox_max_inhibition (%) (HepG2-A16-CD81EGFP cells; [2]): 1.76%
normalized signal at concentration 0.000508053 [1, 3]: 0.8794
normalized signal at concentration 0.00152416 [1, 3]: 0.9359
normalized signal at concentration 0.00457247 [1, 3]: 0.9054
normalized signal at concentration 0.0137174 [1, 3]: 0.8762
normalized signal at concentration 0.0411523 [1, 3]: 0.8388
normalized signal at concentration 0.123457 [1, 3]: 0.9562
normalized signal at concentration 0.37037 [1, 3]: 0.9801
normalized signal at concentration 1.11111 [1, 3]: 0.9783
normalized signal at concentration 3.33333 [1, 3]: 0.874
normalized signal at concentration 10 [1, 3]: 0.9112
pIC50 [1, 4]: < 5.00
normalized signal at concentration 0.000508053 [1, 5]: 0.8292
normalized signal at concentration 0.00152416 [1, 5]: 0.8809
normalized signal at concentration 0.00457247 [1, 5]: 0.7545
normalized signal at concentration 0.0137174 [1, 5]: 0.9599
normalized signal at concentration 0.0411523 [1, 5]: 0.9428
normalized signal at concentration 0.123457 [1, 5]: 0.9557
normalized signal at concentration 0.37037 [1, 5]: 0.8087
normalized signal at concentration 1.11111 [1, 5]: 0.9126
normalized signal at concentration 3.33333 [1, 5]: 0.9018
normalized signal at concentration 10 [1, 5]: 1.015
PbLuc_max_inhibition (%) [1, 2]: 25%

COc1cccc(CN2[C@H](CO)[C@@H](c3ccccc3)C23CN(Cc2ccccc2OC)C3)c1 [BRD-K58149752-001-01-9]
pIC50 (HepG2-A16-CD81EGFP cells; sheet 2nd round): < 5.00
Tox_max_inhibition (%) (HepG2-A16-CD81EGFP cells; [2]): 12%
normalized signal at concentration 10 [1, 6]: 0.43
normalized signal at concentration 0.000508053 [1, 7]: 0.95
normalized signal at concentration 0.00152416 [1, 7]: 0.91
normalized signal at concentration 0.00457247 [1, 7]: 0.80
normalized signal at concentration 0.0137174 [1, 7]: 0.89
normalized signal at concentration 0.0411523 [1, 7]: 0.73
normalized signal at concentration 0.123457 [1, 7]: 1.00
normalized signal at concentration 0.37037 [1, 7]: 0.78
normalized signal at concentration 1.11111 [1, 7]: 1.22
normalized signal at concentration 3.33333 [1, 7]: 1.08
pIC50 [1, 8]: < 5.00
normalized signal at concentration 10 [1, 9]: 0.60
normalized signal at concentration 0.000508053 [1, 10]: 0.82
normalized signal at concentration 0.00152416 [1, 10]: 0.84
normalized signal at concentration 0.00457247 [1, 10]: 0.88
normalized signal at concentration 0.0137174 [1, 10]: 0.90
normalized signal at concentration 0.0411523 [1, 10]: 1.01
normalized signal at concentration 0.123457 [1, 10]: 0.92
normalized signal at concentration 0.37037 [1, 10]: 0.85
normalized signal at concentration 1.11111 [1, 10]: 0.92
normalized signal at concentration 3.33333 [1, 10]: 0.98
PbLuc_max_inhibition (%) [1, 2]: 57%

C[C@H](CO)N1C[C@H](C)[C@H](CN(C)S(=O)(=O)c2ccc(F)cc2)OCCCC[C@H](C)Oc2ccc(N(C)C)cc2C1=O [BRD-K59130783-001-01-1]
pIC50 (HepG2-A16-CD81EGFP cells; sheet 2nd round): < 5.00
Tox_max_inhibition (%) (HepG2-A16-CD81EGFP cells; [2]): 7%
normalized signal at concentration 0.000508053 [1, 3]: 0.8293
normalized signal at concentration 0.00152416 [1, 3]: 0.8148
normalized signal at concentration 0.00457247 [1, 3]: 0.8395
normalized signal at concentration 0.0137174 [1, 3]: 0.9506
normalized signal at concentration 0.0411523 [1, 3]: 0.8723
normalized signal at concentration 0.123457 [1, 3]: 1.0641
normalized signal at concentration 0.37037 [1, 3]: 0.9674
normalized signal at concentration 1.11111 [1, 3]: 0.9129
normalized signal at concentration 3.33333 [1, 3]: 0.9251
normalized signal at concentration 10 [1, 3]: 0.7483
pIC50 [1, 4]: < 5.00
normalized signal at concentration 0.000508053 [1, 5]: 1.007
normalized signal at concentration 0.00152416 [1, 5]: 0.9488
normalized signal at concentration 0.00457247 [1, 5]: 0.9241
normalized signal at concentration 0.0137174 [1, 5]: 0.9817
normalized signal at concentration 0.0411523 [1, 5]: 0.8684
normalized signal at concentration 0.123457 [1, 5]: 0.9044
normalized signal at concentration 0.37037 [1, 5]: 1.051
normalized signal at concentration 1.11111 [1, 5]: 0.8044
normalized signal at concentration 3.33333 [1, 5]: 0.946
normalized signal at concentration 10 [1, 5]: 0.5139
PbLuc_max_inhibition (%) [1, 2]: 49%

O=C(O)C[C@H]1CC[C@@H]2[C@H](COC[C@@H](O)CN2S(=O)(=O)c2ccc(Oc3ccccc3)cc2)O1 [BRD-K61788733-001-01-3]
pIC50 (HepG2-A16-CD81EGFP cells; sheet 2nd round): < 5.00
Tox_max_inhibition (%) (HepG2-A16-CD81EGFP cells; [2]): 4.62%
normalized signal at concentration 0.000508053 [1, 3]: 0.8641
normalized signal at concentration 0.00152416 [1, 3]: 0.8788
normalized signal at concentration 0.00457247 [1, 3]: 0.8741
normalized signal at concentration 0.0137174 [1, 3]: 0.9455
normalized signal at concentration 0.0411523 [1, 3]: 0.9154
normalized signal at concentration 0.123457 [1, 3]: 0.9561
normalized signal at concentration 0.37037 [1, 3]: 0.927
normalized signal at concentration 1.11111 [1, 3]: 1.099
normalized signal at concentration 3.33333 [1, 3]: 1.256
normalized signal at concentration 10 [1, 3]: 1.046
pIC50 [1, 4]: < 5.00
normalized signal at concentration 0.000508053 [1, 5]: 1.03
normalized signal at concentration 0.00152416 [1, 5]: 0.992
normalized signal at concentration 0.00457247 [1, 5]: 0.8804
normalized signal at concentration 0.0137174 [1, 5]: 0.7616
normalized signal at concentration 0.0411523 [1, 5]: 1.066
normalized signal at concentration 0.123457 [1, 5]: 0.77
normalized signal at concentration 0.37037 [1, 5]: 0.8648
normalized signal at concentration 1.11111 [1, 5]: 0.993
normalized signal at concentration 3.33333 [1, 5]: 1.071
normalized signal at concentration 10 [1, 5]: 1.076
PbLuc_max_inhibition (%) [1, 2]: 24%

C/C=C/c1ccc([C@H]2[C@@H](CO)N(CC3CCCCC3)[C@H]2CNC(C)C)cc1 [BRD-K63968422-001-01-5]
pIC50 (HepG2-A16-CD81EGFP cells; sheet 2nd round): < 5.00
Tox_max_inhibition (%) (HepG2-A16-CD81EGFP cells; [2]): 9%
normalized signal at concentration 10 [1, 6]: 0.94
normalized signal at concentration 0.000508053 [1, 7]: 1.00
normalized signal at concentration 0.00152416 [1, 7]: 1.12
normalized signal at concentration 0.00457247 [1, 7]: 0.90
normalized signal at concentration 0.0137174 [1, 7]: 1.14
normalized signal at concentration 0.0411523 [1, 7]: 1.01
normalized signal at concentration 0.123457 [1, 7]: 0.97
normalized signal at concentration 0.37037 [1, 7]: 0.96
normalized signal at concentration 1.11111 [1, 7]: 0.99
normalized signal at concentration 3.33333 [1, 7]: 1.01
pIC50 [1, 8]: < 5.00
normalized signal at concentration 10 [1, 9]: 0.85
normalized signal at concentration 0.000508053 [1, 10]: 0.78
normalized signal at concentration 0.00152416 [1, 10]: 1.01
normalized signal at concentration 0.00457247 [1, 10]: 1.16
normalized signal at concentration 0.0137174 [1, 10]: 1.05
normalized signal at concentration 0.0411523 [1, 10]: 1.10
normalized signal at concentration 0.123457 [1, 10]: 1.05
normalized signal at concentration 0.37037 [1, 10]: 1.24
normalized signal at concentration 1.11111 [1, 10]: 1.02
normalized signal at concentration 3.33333 [1, 10]: 1.10
PbLuc_max_inhibition (%) [1, 2]: 22%

C[C@@H]1CN([C@H](C)CO)C(=O)c2cccc(NC(=O)c3ccc(-c4nccs4)cc3)c2O[C@H]1CN(C)C(=O)Nc1ccc(C(F)(F)F)cc1 [BRD-K64517877-001-01-9]
Tox_max_inhibition (%) (HepG2-A16-CD81EGFP cells; [11]): 9%
pIC50 (HepG2-A16-CD81EGFP cells; 2nd round, unit inferred): < 5.00
PbLuc_max_inhibition (%) [1, 11]: 27%
normalized signal at 0.000508053 (first series) ([1]; concentration 0.000508053, first replicate series, fraction of control): 0.8077
normalized signal at 0.000508053 (second series) ([1]; concentration 0.000508053, second replicate series, fraction of control): 1.002
normalized signal at 0.00152416 (first series) ([1]; concentration 0.00152416, first replicate series, fraction of control): 0.8666
normalized signal at 0.00152416 (second series) ([1]; concentration 0.00152416, second replicate series, fraction of control): 0.9304
normalized signal at 0.00457247 (first series) ([1]; concentration 0.00457247, first replicate series, fraction of control): 0.8925
normalized signal at 0.00457247 (second series) ([1]; concentration 0.00457247, second replicate series, fraction of control): 0.7834
normalized signal at 0.0137174 (first series) ([1]; concentration 0.0137174, first replicate series, fraction of control): 1.197
normalized signal at 0.0137174 (second series) ([1]; concentration 0.0137174, second replicate series, fraction of control): 0.7634
normalized signal at 0.0411523 (first series) ([1]; concentration 0.0411523, first replicate series, fraction of control): 0.9517
normalized signal at 0.0411523 (second series) ([1]; concentration 0.0411523, second replicate series, fraction of control): 0.9123
normalized signal at 0.123457 (first series) ([1]; concentration 0.123457, first replicate series, fraction of control): 1.1239
normalized signal at 0.123457 (second series) ([1]; concentration 0.123457, second replicate series, fraction of control): 0.9202
normalized signal at 0.37037 (first series) ([1]; concentration 0.37037, first replicate series, fraction of control): 0.912
normalized signal at 0.37037 (second series) ([1]; concentration 0.37037, second replicate series, fraction of control): 0.776
normalized signal at 1.11111 (first series) ([1]; concentration 1.11111, first replicate series, fraction of control): 0.8174
normalized signal at 1.11111 (second series) ([1]; concentration 1.11111, second replicate series, fraction of control): 0.8082
normalized signal at 3.33333 (first series) ([1]; concentration 3.33333, first replicate series, fraction of control): 0.9935
normalized signal at 3.33333 (second series) ([1]; concentration 3.33333, second replicate series, fraction of control): 0.7269
normalized signal at 10 (first series) ([1]; concentration 10, first replicate series, fraction of control): 1.005
normalized signal at 10 (second series) ([1]; concentration 10, second replicate series, fraction of control): 0.7551
pIC50 ([1]; 2nd round, Broad DOS compounds, unit not printed (dose series head 10 to 0.000508053)): < 5.00
